Measured values from PubChem BioAssay (NCI).
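Test compounds were applied to cells in 96-well plates for 48 hours at 5 doses. Definition used: TGI = concentration required for complete inhibition of growth.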

Tests used:
Assay in all cases: NCI tumour cell line growth inhibition, 48 h
UACC-257 melanoma = system: UACC-257 melanoma
HT29 colon = system: HT29 colon
HCT-15 colon = system: HCT-15 colon
IGROV1 ovarian = system: IGROV1 ovarian
U251 CNS = system: U251 CNS
SK-MEL-5 melanoma = system: SK-MEL-5 melanoma
SF-295 CNS = system: SF-295 CNS
MCF7 breast = system: MCF7 breast
DU-145 prostate = system: DU-145 prostate
KM12 colon = system: KM12 colon
A498 renal = system: A498 renal
MDA-MB-231 breast = system: MDA-MB-231 breast
COLO 205 colon = system: COLO 205 colon
PC-3 prostate = system: PC-3 prostate
HOP-92 NSCLC = system: HOP-92 NSCLC
OVCAR-5 ovarian = system: OVCAR-5 ovarian
ACHN renal = system: ACHN renal
NCI-H522 lung = system: NCI-H522 lung
SK-OV-3 ovarian = system: SK-OV-3 ovarian
SNB-19 CNS = system: SNB-19 CNS
BT-549 breast = system: BT-549 breast
MDA-N = system: MDA-N
SR leukemia = system: SR leukemia
CAKI-1 renal = system: CAKI-1 renal
MALME-3M melanoma = system: MALME-3M melanoma
NCI/ADR-RES ovarian = system: NCI/ADR-RES ovarian
RXF 393 renal = system: RXF 393 renal
UACC-62 melanoma = system: UACC-62 melanoma
NCI-H23 lung = system: NCI-H23 lung
786-0 renal = system: 786-0 renal
HCC-2998 colon = system: HCC-2998 colon
K-562 leukemia = system: K-562 leukemia
OVCAR-4 ovarian = system: OVCAR-4 ovarian
TK-10 renal = system: TK-10 renal
HS 578T breast = system: HS 578T breast
EKVX NSCLC = system: EKVX NSCLC
SW-620 colon = system: SW-620 colon
MDA-MB-435 = system: MDA-MB-435
NCI-H460 lung = system: NCI-H460 lung
RPMI-8226 leukemia = system: RPMI-8226 leukemia
SN12C renal = system: SN12C renal
HCT-116 colon = system: HCT-116 colon
SF-539 CNS = system: SF-539 CNS
M14 melanoma = system: M14 melanoma
SF-268 CNS = system: SF-268 CNS
A549 NSCLC = system: A549 NSCLC
SK-MEL-2 melanoma = system: SK-MEL-2 melanoma
SNB-75 CNS = system: SNB-75 CNS
UO-31 renal = system: UO-31 renal
OVCAR-3 ovarian = system: OVCAR-3 ovarian
MOLT-4 leukemia = system: MOLT-4 leukemia
LOX IMVI melanoma = system: LOX IMVI melanoma
T-47D breast = system: T-47D breast
CCRF-CEM leukemia = system: CCRF-CEM leukemia
OVCAR-8 ovarian = system: OVCAR-8 ovarian
HOP-62 NSCLC = system: HOP-62 NSCLC
SK-MEL-28 melanoma = system: SK-MEL-28 melanoma
HL-60(TB) leukemia = system: HL-60(TB) leukemia
NCI-H226 lung = system: NCI-H226 lung

CC1=C(Cc2ccccc2)C(Cc2ccccc2)=C(C)S1=O
TGI (UACC-257 melanoma): 48.5 µM | TGI (HT29 colon): 39.4 µM | TGI (HCT-15 colon): > 100 µM | TGI (IGROV1 ovarian): > 100 µM | TGI (U251 CNS): > 100 µM | TGI (SK-MEL-5 melanoma): 30.1 µM | TGI (SF-295 CNS): > 100 µM | TGI (MCF7 breast): 60 µM | TGI (DU-145 prostate): > 100 µM | TGI (KM12 colon): 36.5 µM | TGI (A498 renal): 63.7 µM | TGI (MDA-MB-231 breast): 52.3 µM | TGI (COLO 205 colon): 43.1 µM | TGI (PC-3 prostate): 54.1 µM | TGI (HOP-92 NSCLC): > 100 µM | TGI (OVCAR-5 ovarian): 73.2 µM | TGI (ACHN renal): > 100 µM | TGI (NCI-H522 lung): 78.8 µM | TGI (SK-OV-3 ovarian): > 100 µM | TGI (SNB-19 CNS): > 100 µM | TGI (BT-549 breast): 92.4 µM | TGI (MDA-N): 71.2 µM | TGI (SR leukemia): 53.2 µM | TGI (CAKI-1 renal): > 100 µM | TGI (MALME-3M melanoma): > 100 µM | TGI (NCI/ADR-RES ovarian): 51.7 µM | TGI (RXF 393 renal): 55.1 µM | TGI (UACC-62 melanoma): 34.3 µM | TGI (NCI-H23 lung): 95.7 µM | TGI (786-0 renal): 71 µM | TGI (HCC-2998 colon): 42.4 µM | TGI (K-562 leukemia): > 100 µM | TGI (OVCAR-4 ovarian): > 100 µM | TGI (TK-10 renal): 76.2 µM | TGI (HS 578T breast): > 100 µM | TGI (EKVX NSCLC): 46.9 µM | TGI (SW-620 colon): > 100 µM | TGI (MDA-MB-435): 35.6 µM | TGI (NCI-H460 lung): 99.1 µM | TGI (RPMI-8226 leukemia): 54.4 µM | TGI (SN12C renal): 84.1 µM | TGI (HCT-116 colon): 74.7 µM | TGI (SF-539 CNS): > 100 µM | TGI (M14 melanoma): 46.3 µM | TGI (SF-268 CNS): > 100 µM | TGI (A549 NSCLC): > 100 µM | TGI (SK-MEL-2 melanoma): 35.1 µM | TGI (SNB-75 CNS): 54.6 µM | TGI (UO-31 renal): > 100 µM | TGI (OVCAR-3 ovarian): > 100 µM | TGI (MOLT-4 leukemia): 41.5 µM | TGI (LOX IMVI melanoma): 50.9 µM | TGI (T-47D breast): 59.1 µM | TGI (CCRF-CEM leukemia): 49.9 µM | TGI (OVCAR-8 ovarian): > 100 µM | TGI (HOP-62 NSCLC): > 100 µM | TGI (SK-MEL-28 melanoma): > 100 µM | TGI (HL-60(TB) leukemia): 34.6 µM

COc1ccc(Nc2nc3cc(C(F)(F)F)ccc3n3cccc23)cc1OC
TGI (UACC-257 melanoma): 34.8 µM | TGI (HT29 colon): 24.1 µM | TGI (HCT-15 colon): 56.1 µM | TGI (IGROV1 ovarian): > 100 µM | TGI (U251 CNS): 28.6 µM | TGI (SK-MEL-5 melanoma): 27.6 µM | TGI (SF-295 CNS): 30.1 µM | TGI (MCF7 breast): 51.5 µM | TGI (DU-145 prostate): 52.6 µM | TGI (KM12 colon): 34 µM | TGI (A498 renal): 32.6 µM | TGI (MDA-MB-231 breast): 36.5 µM | TGI (PC-3 prostate): 26.8 µM | TGI (HOP-92 NSCLC): 47.5 µM | TGI (OVCAR-5 ovarian): 58 µM | TGI (ACHN renal): 74.3 µM | TGI (NCI-H522 lung): 41.5 µM | TGI (SK-OV-3 ovarian): 92.1 µM | TGI (SNB-19 CNS): 60.9 µM | TGI (BT-549 breast): 56.1 µM | TGI (MDA-N): 29.3 µM | TGI (SR leukemia): 34.9 µM | TGI (CAKI-1 renal): > 100 µM | TGI (MALME-3M melanoma): 54.4 µM | TGI (NCI/ADR-RES ovarian): 50.1 µM | TGI (RXF 393 renal): 29 µM | TGI (UACC-62 melanoma): 28.9 µM | TGI (NCI-H23 lung): 43.2 µM | TGI (786-0 renal): 24.7 µM | TGI (HCC-2998 colon): 27.3 µM | TGI (K-562 leukemia): 52.6 µM | TGI (TK-10 renal): 49 µM | TGI (HS 578T breast): > 100 µM | TGI (EKVX NSCLC): 58.5 µM | TGI (SW-620 colon): > 100 µM | TGI (MDA-MB-435): 36.3 µM | TGI (NCI-H460 lung): 28.7 µM | TGI (RPMI-8226 leukemia): 55.1 µM | TGI (HCT-116 colon): 27.4 µM | TGI (SF-539 CNS): 34 µM | TGI (M14 melanoma): 31.3 µM | TGI (SF-268 CNS): > 100 µM | TGI (A549 NSCLC): 50.8 µM | TGI (SK-MEL-2 melanoma): 30.9 µM | TGI (SNB-75 CNS): 39.5 µM | TGI (UO-31 renal): 63.4 µM | TGI (OVCAR-3 ovarian): 54 µM | TGI (MOLT-4 leukemia): 37.8 µM | TGI (LOX IMVI melanoma): 15.8 µM | TGI (T-47D breast): 34.9 µM | TGI (CCRF-CEM leukemia): > 100 µM | TGI (OVCAR-8 ovarian): 87.8 µM | TGI (HOP-62 NSCLC): 48.7 µM | TGI (SK-MEL-28 melanoma): > 100 µM | TGI (HL-60(TB) leukemia): 67 µM

COc1ccc2cc1Oc1ccc(cc1)CC1c3cc(OC)c(cc3CCN1C)Oc1c(OC)c(OC)cc3c1C(C2)N(C)CC3 (stereo not drawn)
TGI (UACC-257 melanoma): 16.1 µM | TGI (HT29 colon): 18 µM | TGI (HCT-15 colon): 18.3 µM | TGI (IGROV1 ovarian): 64.2 µM | TGI (U251 CNS): 24.6 µM | TGI (SK-MEL-5 melanoma): 15.9 µM | TGI (SF-295 CNS): 21.1 µM | TGI (MCF7 breast): 36.7 µM | TGI (DU-145 prostate): 27.9 µM | TGI (KM12 colon): 26 µM | TGI (A498 renal): 23.9 µM | TGI (MDA-MB-231 breast): 21.5 µM | TGI (COLO 205 colon): 11.8 µM | TGI (PC-3 prostate): 40.7 µM | TGI (HOP-92 NSCLC): 34.1 µM | TGI (OVCAR-5 ovarian): > 75 µM | TGI (ACHN renal): 19 µM | TGI (NCI-H522 lung): 20.6 µM | TGI (SK-OV-3 ovarian): > 75 µM | TGI (SNB-19 CNS): 27.1 µM | TGI (BT-549 breast): 20.9 µM | TGI (MDA-N): 20.3 µM | TGI (SR leukemia): 4.33 µM | TGI (CAKI-1 renal): 29.4 µM | TGI (MALME-3M melanoma): 23.1 µM | TGI (NCI/ADR-RES ovarian): 29.9 µM | TGI (UACC-62 melanoma): 23.3 µM | TGI (NCI-H23 lung): 35.6 µM | TGI (786-0 renal): 30.4 µM | TGI (HCC-2998 colon): 19.1 µM | TGI (K-562 leukemia): 28.7 µM | TGI (OVCAR-4 ovarian): 24.4 µM | TGI (TK-10 renal): 20.6 µM | TGI (HS 578T breast): 25.6 µM | TGI (EKVX NSCLC): 31.7 µM | TGI (SW-620 colon): > 75 µM | TGI (MDA-MB-435): 26.2 µM | TGI (NCI-H460 lung): 19.8 µM | TGI (SN12C renal): 18.3 µM | TGI (NCI-H226 lung): 51.7 µM | TGI (HCT-116 colon): > 75 µM | TGI (SF-539 CNS): 19.5 µM | TGI (M14 melanoma): 15 µM | TGI (SF-268 CNS): 33.6 µM | TGI (A549 NSCLC): 53.4 µM | TGI (SK-MEL-2 melanoma): 25.6 µM | TGI (SNB-75 CNS): 18.2 µM | TGI (UO-31 renal): 18.8 µM | TGI (MOLT-4 leukemia): 32.4 µM | TGI (LOX IMVI melanoma): 28 µM | TGI (T-47D breast): 20.5 µM | TGI (CCRF-CEM leukemia): 42.4 µM | TGI (OVCAR-8 ovarian): 23.2 µM | TGI (SK-MEL-28 melanoma): 34.9 µM | TGI (HL-60(TB) leukemia): 16.3 µM
